Source: EP0514935B1, “Novel benzopyran derivatives and processes for the preparation thereof” (KOREA RESEARCH INSTITUTE OF CHEMICAL TECHNOLOGY, priority 1991, dated 1992)
Read-outs that look alike come from different tables or passages of the source.

Columns and labels:
[1] = system: Guinea pig trachea muscle; assay: Relaxation activity on respiratory smooth muscle contracted with histamine; type: cell-based; details: Cavia porcellus, concentration relaxing 50% of the contraction, read-out: Trachea Relaxation Activity, EC₅₀
Protocol: Further, the relaxation activity on respiratory smooth muscle was determined as follows: Guinea pig trachea muscle was made to be contracted with histamine; and then the test compound of the present invention was administered thereto; and the concentration of the test compound which was required in relaxing 50% level of the contraction was determined and designated as EC₅₀.

[2] = Toxicity test, oral administration, deaths over 48 hours; details: rat, in vivo, rats, orally administered; for mortality at 48 h: deaths over 48 hours, read-out: Lethal Rate(%); for LD50 at 48 h: amount of test compound which causes a 50% lethal rate, read-out: LD₅₀
Protocol: Six pairs(each pair consisting of a male and a female) of the rats were used in the test. The number of the rats which died over a period of 48 hours was reported.

[3] = system: spontaneously hypertensive rats; assay: Blood pressure-lowering activity, tail-cuff method; type: in vivo; details: maximum lowering effect on systolic blood pressure
Protocol: The activity of the formula(I) compounds of the present invention was tested by employing the tail-cuff method described in references [see, e.g., I. M. Claxton, M. G. Palfreyman, R. H. Poyster and R. L. Whiting, European Journal of Pharmacology 37, 179(1976)] . After administration of the test compound of formula(I) to sets of spontaneously hypertensive rats, maximum blood pressure-lowering activity was determined by measuring the lowering effect on systolic blood pressure.

| SMILES | EC50 [1] [µM] | mortality at 48 h ([2]; Dose 10 mg/kg) [%] | mortality at 48 h ([2]; Dose 20 mg/kg) [%] | mortality at 48 h ([2]; Dose 50 mg/kg) [%] | LD50 at 48 h [2] [mg/kg] | Blood Pressure-Lowering Activity ([3]; Dose 0.3 mg/kg) [%] | Blood Pressure-Lowering Activity ([3]; Dose 1.0 mg/kg) [%] | Blood Pressure-Lowering Activity ([3]; Dose 0.1 mg/kg) [%] |
| --- | --- | --- | --- | --- | --- | --- | --- | --- |
| COC(OC)C1(C)C=C(N2CCCC2=O)c2cc(C#N)ccc2O1 (racemic) [Example 1, 2-dimethoxymethyl-2-methyl-4-(2' -oxo-1' -pyrrolidinyl)-6-cyano-2H-1-benzopyran] | 150 | 0 | 8 | 25 | > 50 | 24 | 43 | – |
| CC1(C2OCCCO2)C=C(N2CCCC2=O)c2cc([N+](=O)[O-])ccc2O1 (racemic) [Example 11, 2-(2'' -(1'' ,3'' -dioxane))-2-methyl-4-(2' -oxo-1' -pyrrolidinyl)-6-nitro-2H-1-benzopyran] | 50 | 0 | 35 | 35 | > 50 | – | – | 48 |
| COC(OC)C1(C)C=C(N2CCCC2=O)c2cc(C#N)ccc2O1 (single isomer, unassigned) [16(-), 2-dimethoxymethyl-2-methyl-4-(2' -oxo-1' -pyrrolidinyl)-6-cyano-2H-1-benzopyran] | 140 | – | – | – | – | 28 | 55 | – |
| CC1(C)Oc2ccc(C#N)cc2C(N2CCCC2=O)C1O (stereo not drawn) [Cromakalim(-), Cromakalim, reference compound] | 2.7 | – | – | – | – | 39 | – | – |

More lines, main results first:

| EC50 [1] [µM] | SMILES | mortality at 48 h ([2]; Dose 10 mg/kg) [%] | mortality at 48 h ([2]; Dose 20 mg/kg) [%] | mortality at 48 h ([2]; Dose 50 mg/kg) [%] | LD50 at 48 h [2] [mg/kg] | Blood Pressure-Lowering Activity ([3]; Dose 0.3 mg/kg) [%] | Blood Pressure-Lowering Activity ([3]; Dose 1.0 mg/kg) [%] | Blood Pressure-Lowering Activity ([3]; Dose 0.1 mg/kg) [%] |
| --- | --- | --- | --- | --- | --- | --- | --- | --- |
| 10.9 | COC(OC)C1(C)C=C(N2CCCC2=O)c2cc(S(=O)(=O)c3ccccc3)ccc2O1 (racemic) [Example 3, 2-dimethoxymethyl-2-methyl-4-(2' -oxo-1' -pyrrolidinyl)-6-phenylsulfonyl-2H-1-benzopyran] | – | – | – | – | – | – | 6.9 |
| 50 | CC1(C2OCCO2)C=C(N2CCCC2=O)c2cc(C#N)ccc2O1 (racemic) [Example 7, 2-(2'' -(1'' ,3'' -dioxolane))-2-methyl-4-(2' -oxo-1' -pyrrolidinyl)-6-cyano-2H-1-benzopyran] | – | – | – | – | – | 41 | – |
| 17.1 | CC1(C2OCCO2)C=C(N2CCCC2=O)c2cc(OC(F)(F)F)ccc2O1 (racemic) [Example 9, 2-(2'' -(1'' ,3'' -dioxolane))-2-methyl-4-(2' -oxo-1' -pyrrolidinyl)-6-trifluoromethoxy-2H-1-benzopyran] | – | – | – | – | – | – | 20.6 |
